The record followed here is PubChem BioAssay (NCI).

Several values for one entry are separate records, joined by “and”; a condition that tells them apart may be missing. Identical values can stand only once.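 Method: 48-hour compound exposure of cells in 96-well plates, five concentrations, linear interpolation of endpoints. GI50 = concentration required for 50% inhibition of growth. TGI denotes the concentration required for complete inhibition of growth.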

This experiment relates to MDA-MB-468 breast. Kind of experiment: growth of human tumour cells (NCI), 48 h.
For the molecule `CCC(C)[C@H]1O[C@]2(C=C[C@@H]1C)C[C@@H]1C[C@@H](C/C=C(\C)[C@@H](OC3C[C@H](OC)C(O[C@H]4C[C@H](OC)[C@@H](O)[C@H](C)O4)[C@H](C)O3)[C@@H](C)/C=C/C=C3\CO[C@@H]4[C@H](O)C(C)=C[C@@H](C(=O)O1)[C@]34O)O2` (some centres not stated), the GI50 is 1.03 µM and the TGI came out at 4.14 µM.
For `COC1=CC(c2ccc[nH]2)=N/C1=C\c1[nH]c(C)c(C(=O)CCCCC(=O)NC(C)(C)C)c1C`, in that order: 1.52 µM and 3.58 µM.
For `Cc1cc(C(=C2C=CC(=Nc3ccccc3)C=C2)c2ccc(Nc3ccccc3)cc2)ccc1N`, in that order: 0.332 µM and 1.29 µM.
The corresponding values for `COc1cccc(-c2nn(-c3ccccc3)cc2-c2ccnc(NCCCNC(=O)Nc3ccc(Cl)c(Cl)c3)c2)c1` are 1.92 µM and 4.34 µM.
In the case of `O=S(=O)(Nc1ccc(Br)c(Cl)c1)c1ccc(-c2cnc(C3CC3)o2)cc1`, the GI50 is 0.263 µM and the TGI was found to be 2.86 µM.
The corresponding values for `O=c1ccn(C2CC(O)C(CO)O2)c(=O)[nH]1` (configuration not stated) are greater than 5000 µM and greater than 5000 µM.
The corresponding values for `CNC(=O)c1cccc2cc(Oc3ccnc4cc(OCC5(N)CC5)c(OC)cc34)ccc12` are 7.41 µM and 22.6 µM.
The corresponding values for `CNCCCn1c2c(c3ccc([N+](=O)[O-])cc3c1=O)C(=O)c1cc(OC)cnc1-2` are 0.0335 µM and 0.189 µM.
On to `COc1cccc(C2=C(c3c(C)n(C)c4ccccc34)C(=O)NC2=O)c1`, for which the GI50 is 7.67 µM and the TGI was greater than 25 µM.
Consider `COc1cccc2c1ccc1nc3cccc(C(=O)N[C@H](C)CN(C)C)c3nc12`, for which the GI50 is 0.12 µM and the TGI was found to be 0.485 µM.
For `C=C1/C(=C\C=C2/CCC[C@]3(C)[C@@H]([C@H](C)CCCC(C)(C)O)CC[C@@H]23)C[C@@H](OC(=O)CBr)C[C@@H]1O`, in that order: 2.56 µM and 7.74 µM.
The corresponding values for `CN(C)C(=S)/N=c1\ssc(=S)n1Cc1ccccc1` are 0.5 µM and 35.2 µM.
For `CCn1cc(C(=O)N/N=C/c2ccccc2)c(=O)c2cc(F)c(N3CCNC(C)C3)c(F)c21` (configuration not stated), in that order: 1.62 µM and 3.12 µM.
For `CN1CCN(CCOc2ccc(-c3cnc4c(-c5ccc(C(F)(F)F)cc5)cnn4c3)cc2)CC1`, the GI50 is 1.36 µM and the TGI is 2.95 µM.
`CCCc1cc(=O)[nH]c(-n2nc(C)cc2C)n1`: the GI50 is 4.77 µM and the TGI was greater than 100 µM.
For `O=C1c2cccc(NCCN=Cc3cc([N+](=O)[O-])ccc3O)c2C(=O)c2c(NCCN=Cc3cc([N+](=O)[O-])ccc3O)cccc21`, in that order: 1.86 µM and 20.1 µM.
For `COc1ccc(-c2nc(/C=N/Nc3cc(C)nc4ccc(Cl)cc34)c(C)o2)cc1`, in that order: 1.93 µM and 3.71 µM.
The corresponding values for `Cc1cc(O)c(C2=NN(c3ccc(S(N)(=O)=O)cc3)C(c3ccccc3Cl)C2)cc1Cl` (configuration not stated) are 2.22 µM and 4.74 µM.
In the case of `CCCCC[C@H]1C/C=C2/C(=O)C=C[C@@H]2C/C=C\CCCC(=O)O[C@@H](CCCCC)C/C=C2/C(=O)C=C[C@@H]2C/C=C\CCCC(=O)O1`, the GI50 is 0.371 µM and the TGI amounted to 1.01 µM.
As for `COc1ccc2c(c1)nnn1c3ncccc3c(N=O)c21`, the GI50 is 0.0323 µM and 0.126 µM.
Take `COc1cccc(-n2nc(C)c3c(N/N=C(\C)c4ccncc4)ncnc32)c1`: the GI50 was 2.67 µM and the TGI was greater than 25 µM.
The corresponding values for `CN(C)c1ccc(-c2cc(-c3c[nH]c4ccccc34)nc(N)c2C#N)cc1` are 1.97 µM and 9.22 µM.
For `COC(=O)[C@@]12OC[C@]34[C@H]([C@@H](O)[C@@H]1O)[C@@]1(C)[C@H](O)C(=O)C=C(C)[C@@H]1C[C@H]3OC(=O)C(OC(C)=O)[C@@H]24` (some centres not stated), in that order: 0.0208 µM and 0.0624 µM.
For `CC(=O)OC[C@]12CC[C@@H](C(=O)CBr)[C@@H]1[C@H]1CC[C@@H]3[C@@]4(C)CCCNC(C)(C)[C@@H]4CC[C@@]3(C)[C@]1(C)CC2`, in that order: 2.12 µM and 5.66 µM.
As to `NC(=O)c1ccccc1Nc1ccc2nnc(-c3ccncc3)n2n1`, the GI50 was 1.98 µM and the TGI worked out at 7.32 µM.
For `CC1OC(n2c3ccccc3c3c4c(c5c6ccccc6[nH]c5c32)C(=O)N(CCN[C@@H]2CCC[C@H]2N)C4=O)CC(O)C1O` (some centres not stated), in that order: 1.15 µM and 3 µM.
For `COc1cc2c(cc1O)CC[C@@H]1[C@@H]2CC[C@]2(C)[C@@H](OCCN(C)C)CC[C@@H]12`, in that order: 0.154 µM and 0.531 µM.
`COc1ccc(-c2cc(-c3cccc4ccccc34)n3c(n2)nc2ccccc23)cc1OC`: the GI50 was 2.7 µM and the TGI is greater than 100 µM.
On to `Nc1nc(N)c2nc(CNc3ccc(C(=O)NC(CC(=O)O)C(=O)O)cc3)cnc2n1` (configuration not stated), for which the GI50 was 1.37 µM and the TGI was greater than 100 µM.
For `CCC1CN2C(=N1)c1ccccc1-c1cc(Cl)ccc12` (configuration not stated), in that order: 2.16 µM and 6.85 µM.
The corresponding values for `CCn1cnc(C[C@H](NC(=O)[C@@H](NC(=O)Nc2cc(C(F)(F)F)cc(C(F)(F)F)c2)C(C)C)C(=O)OC)c1` are 1.74 µM and 3.57 µM.
The corresponding values for `O=C(Nc1cccc(-n2cc(-c3ccncc3)c(-c3cc(O)cc(Cl)c3)n2)c1)Nc1ccc(Cl)c(C(F)(F)F)c1` are 2.08 µM and 8.42 µM.
For `NC(=O)c1ccc(I)c(N=O)c1`, the GI50 is 21.3 µM and the TGI is 61.3 µM.
Regarding `O=C1NC(=C(Cl)Cl)/C(=N/S(=O)(=O)N2CCCCC2CC2(C(F)(F)F)N=N2)N1` (configuration not stated), the GI50 is 1.16 µM and the TGI stood at 3.91 µM.
For `CN(C)C(=S)/N=c1\ssc(=S)n1Cc1cccnc1`, in that order: 3.07 µM and greater than 100 µM.
The corresponding values for `Cc1cc(NCCN(C(C)C)C(C)C)nc(/N=C(\N)Nc2ccc(Cl)c(C(F)(F)F)c2)n1` are 0.229 µM and 0.595 µM.
As to `COc1ccc(C2CC(C)(O)Oc3cc4c(cc32)OCO4)cc1` (configuration not stated), the GI50 was 18.9 µM and the TGI is 55.7 µM.
For `c1csc(-c2cn3nc(-c4c[nH]c5ccccc45)sc3n2)c1`, in that order: 2.92 µM and 27.8 µM.
The corresponding values for `COc1cc(Nc2c(C#N)cnc3cc(OCCCN4CCN(C)CC4)c(OC)cc23)c(Cl)cc1Cl` are 1.63 µM and 4.14 µM.
The corresponding values for `C=CC1CN2CCC1CC2C(O)c1ccnc2ccc(OC)cc12` (configuration not stated) are greater than 100 µM and greater than 100 µM.
For the molecule `CC(=O)C(=Cc1ccc(C=C(C(C)=O)C(C)=O)cc1)C(C)=O`, the GI50 was 1.51 µM and the TGI stood at 3.14 µM.
Consider `Cc1ccc(-c2nc(C#N)c(S(=O)(=O)n3nc(C)cc3N)o2)cc1`, for which the GI50 was 2.72 µM and the TGI turned out to be 7.96 µM.
For `CCCNC(=O)CCC(C)C1CCC2C3C(C[C@H](OC(C)=O)[C@]12C)[C@@]1(C)CCC2(C[C@H]1C[C@H]3OC(C)=O)OOC1(CC[C@]3(C)C4C[C@H](OC(C)=O)[C@]5(C)C(C(C)CCC(=O)NCCC)CCC5C4[C@H](OC(C)=O)C[C@@H]3C1)OO2` (some centres not stated), in that order: 24.9 µM and greater than 100 µM.
For `CCOC(=O)c1cc2c(n1Cc1cccc(OC)c1)-c1oncc1CCC2`, in that order: 0.732 µM and greater than 82.8 µM.
Turning to `COc1ccc(-c2nc(-c3ccccc3)c(-c3ccccc3)[nH]2)cc1OC1CCCC1`, the GI50 was greater than 100 µM and the TGI is greater than 100 µM.
In the case of `CN[C@H](C#Cc1c(F)ccc2c1/C(=C/c1[nH]ccc1OC)C(=O)N2)CO`, the GI50 is 0.476 µM and the TGI was determined as 1.45 µM.
The corresponding values for `C[C@]12CCc3sc(NCCc4ccccc4)nc3C1=CC[C@@H]1[C@@H]2CC[C@]2(C)C(=O)CC[C@@H]12` are 2.99 µM and 10.3 µM.
The corresponding values for `COc1ccc(C(=O)/C=C/c2cccc([N+](=O)[O-])c2)c(OC)c1` are 1.09 µM and 3 µM.
As for `CC1(N)CCN(c2cccnc2NC(=O)c2nc(-c3ncccc3C(F)(F)F)cnc2N)CC1`, the GI50 is 14.1 µM and the TGI is 52.8 µM.
For `Cc1cc(Cl)cc(NS(=O)(=O)c2ccc(-c3cnc(C4CC4)o3)cc2)c1`, in that order: 0.12 µM and 4.44 µM.
The corresponding values for `O=C1C(N2CC2)=C(N2CC2)C(=O)C(N2CC2)=C1N1CC1` are 0.395 µM and 2.44 µM.
For `O=C(Nc1cccc(-n2cc(-c3ccncc3)c(-c3ccc(Cl)c(O)c3)n2)c1)c1ccc(N2CCOCC2)c(C(F)(F)F)c1`, in that order: 7.04 µM and 26.6 µM.
For the molecule `O=C(Nc1ccncc1)C(=O)c1cn(Cc2ccc(Cl)cc2)c2ccccc12`, the GI50 is 0.0271 µM and the TGI came out at 0.346 µM.
For `CCN(Cc1ccc(F)cc1)c1ccc(CO)c(F)c1`, in that order: 0.167 µM and 0.461 µM.
